Values joined by “and” are separate entries in the source; they are usually repeats but may differ in a detail not shown here. Identical values can stand only once.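 Results reflect a 48-hour exposure of cells in 96-well plates to compound at five concentrations. The concentration for 50% growth inhibition is given as GI50. TGI denotes the concentration required for complete inhibition of growth.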
Experiments:
Assay in all cases: NCI anticancer screen, dose series, 48 h; in the data active means GI50 below about 0.43 µM; inactive means the rest
786-0 renal = test system: 786-0 renal
A498 renal = test system: A498 renal
A549 NSCLC = test system: A549 NSCLC
ACHN renal = test system: ACHN renal
BT-549 breast = test system: BT-549 breast
CAKI-1 renal = test system: CAKI-1 renal
CCRF-CEM leukemia = test system: CCRF-CEM leukemia
COLO 205 colon = test system: COLO 205 colon
DU-145 prostate = test system: DU-145 prostate
EKVX NSCLC = test system: EKVX NSCLC
HCC-2998 colon = test system: HCC-2998 colon
HCT-116 colon = test system: HCT-116 colon
HCT-15 colon = test system: HCT-15 colon
HL-60(TB) leukemia = test system: HL-60(TB) leukemia
HOP-62 NSCLC = test system: HOP-62 NSCLC
HS 578T breast = test system: HS 578T breast
HT29 colon = test system: HT29 colon
IGROV1 ovarian = test system: IGROV1 ovarian
K-562 leukemia = test system: K-562 leukemia
KM12 colon = test system: KM12 colon
LOX IMVI melanoma = test system: LOX IMVI melanoma
M14 melanoma = test system: M14 melanoma
MALME-3M melanoma = test system: MALME-3M melanoma
MCF7 breast = test system: MCF7 breast
MDA-MB-231 breast = test system: MDA-MB-231 breast
MDA-MB-435 = test system: MDA-MB-435
MOLT-4 leukemia = test system: MOLT-4 leukemia
NCI-H226 lung = test system: NCI-H226 lung
NCI-H23 lung = test system: NCI-H23 lung
NCI-H460 lung = test system: NCI-H460 lung
NCI-H522 lung = test system: NCI-H522 lung
NCI/ADR-RES ovarian = test system: NCI/ADR-RES ovarian
OVCAR-3 ovarian = test system: OVCAR-3 ovarian
OVCAR-4 ovarian = test system: OVCAR-4 ovarian
OVCAR-5 ovarian = test system: OVCAR-5 ovarian
OVCAR-8 ovarian = test system: OVCAR-8 ovarian
PC-3 prostate = test system: PC-3 prostate
RPMI-8226 leukemia = test system: RPMI-8226 leukemia
RXF 393 renal = test system: RXF 393 renal
SF-268 CNS = test system: SF-268 CNS
SF-295 CNS = test system: SF-295 CNS
SF-539 CNS = test system: SF-539 CNS
SK-MEL-2 melanoma = test system: SK-MEL-2 melanoma
SK-MEL-28 melanoma = test system: SK-MEL-28 melanoma
SK-MEL-5 melanoma = test system: SK-MEL-5 melanoma
SK-OV-3 ovarian = test system: SK-OV-3 ovarian
SN12C renal = test system: SN12C renal
SNB-19 CNS = test system: SNB-19 CNS
SNB-75 CNS = test system: SNB-75 CNS
SR leukemia = test system: SR leukemia
SW-620 colon = test system: SW-620 colon
T-47D breast = test system: T-47D breast
TK-10 renal = test system: TK-10 renal
U251 CNS = test system: U251 CNS
UACC-257 melanoma = test system: UACC-257 melanoma
UACC-62 melanoma = test system: UACC-62 melanoma
UO-31 renal = test system: UO-31 renal

COc1cc(OC)c(/C=C/S(=O)(=O)Cc2ccc(OC)c(NCC(=O)O)c2)c(OC)c1
213 nM and 60.8 nM: TGI (NCI-H522 lung)
347 nM and 470 nM: GI50 (OVCAR-5 ovarian)
> 8570 nM and 1400 nM: TGI (HT29 colon)
> 2680 nM: TGI (MDA-MB-231 breast)
714 nM and 738 nM: TGI (COLO 205 colon)
533 nM: TGI (OVCAR-3 ovarian)
> 3120 nM: TGI (NCI/ADR-RES ovarian)
1290 nM and 1010 nM: TGI (SK-MEL-5 melanoma)
active: GI50 (786-0 renal) 177 nM and 144 nM | GI50 (A498 renal) 66.8 nM and 44.8 nM | GI50 (A549 NSCLC) 229 nM and 75.5 nM | GI50 (BT-549 breast) 193 nM and 400 nM | GI50 (CCRF-CEM leukemia) 159 nM and 291 nM | GI50 (COLO 205 colon) 238 nM and 274 nM | GI50 (DU-145 prostate) 290 nM and 176 nM | GI50 (EKVX NSCLC) 127 nM and 83.4 nM | GI50 (HCC-2998 colon) 247 nM and 237 nM | GI50 (HCT-116 colon) 119 nM and 93.4 nM | GI50 (HCT-15 colon) 127 nM and 241 nM | GI50 (HL-60(TB) leukemia) 156 nM and 355 nM | GI50 (HOP-62 NSCLC) 291 nM and 87.4 nM | GI50 (HS 578T breast) 103 nM and 60.5 nM | GI50 (HT29 colon) 334 nM and 328 nM | GI50 (IGROV1 ovarian) 152 nM and 244 nM | GI50 (K-562 leukemia) 76.7 nM and 49 nM | GI50 (KM12 colon) 103 nM and 49.9 nM | GI50 (LOX IMVI melanoma) 150 nM and 134 nM | GI50 (M14 melanoma) 96.5 nM and 46.7 nM | GI50 (MCF7 breast) 109 nM and 58.6 nM | GI50 (MDA-MB-231 breast) 192 nM and 196 nM | GI50 (MDA-MB-435) 31.2 nM and 28.3 nM | GI50 (NCI-H23 lung) 263 nM and 136 nM | GI50 (NCI-H460 lung) 114 nM and 45.1 nM | GI50 (NCI-H522 lung) 37.4 nM and 20.5 nM | GI50 (NCI/ADR-RES ovarian) 67.8 nM and 33.2 nM | GI50 (OVCAR-3 ovarian) 93.5 nM and 70.2 nM | GI50 (OVCAR-8 ovarian) 273 nM and 104 nM | GI50 (PC-3 prostate) 119 nM and 48.6 nM | GI50 (RPMI-8226 leukemia) 160 nM and 331 nM | GI50 (RXF 393 renal) 72.6 nM and 46.7 nM | GI50 (SF-268 CNS) 292 nM and 153 nM | GI50 (SF-295 CNS) 68.7 nM and 44.6 nM | GI50 (SF-539 CNS) 193 nM and 55.3 nM | GI50 (SK-MEL-2 melanoma) 396 nM and 288 nM | GI50 (SK-MEL-28 melanoma) 340 nM | GI50 (SK-MEL-5 melanoma) 113 nM and 68.4 nM | GI50 (SN12C renal) 207 nM and 251 nM | GI50 (SNB-19 CNS) 139 nM and 244 nM | GI50 (SNB-75 CNS) 68.2 nM and 49.2 nM | GI50 (SR leukemia) 181 nM and 206 nM | GI50 (SW-620 colon) 130 nM and 108 nM | GI50 (U251 CNS) 193 nM and 47.7 nM
442 nM and 99 nM: GI50 (SK-OV-3 ovarian)
115 nM and 111 nM: TGI (MDA-MB-435)
> 24500 nM: TGI (BT-549 breast)
> 2910 nM and 417 nM: GI50 (OVCAR-4 ovarian)
408 nM and 466 nM: GI50 (MOLT-4 leukemia)
> 100000 nM: TGI (786-0 renal) | TGI (A549 NSCLC) | TGI (ACHN renal) | TGI (CAKI-1 renal) | TGI (CCRF-CEM leukemia) | TGI (EKVX NSCLC) | TGI (HCC-2998 colon) | TGI (HCT-15 colon) | TGI (HOP-62 NSCLC) | TGI (HS 578T breast) | TGI (IGROV1 ovarian) | TGI (K-562 leukemia) | TGI (LOX IMVI melanoma) | TGI (MALME-3M melanoma) | TGI (MCF7 breast) | TGI (MOLT-4 leukemia) | TGI (NCI-H226 lung) | TGI (NCI-H23 lung) | TGI (NCI-H460 lung) | TGI (OVCAR-4 ovarian) | TGI (OVCAR-5 ovarian) | TGI (OVCAR-8 ovarian) | TGI (PC-3 prostate) | TGI (RPMI-8226 leukemia) | TGI (RXF 393 renal) | TGI (SF-268 CNS) | TGI (SF-295 CNS) | TGI (SK-MEL-2 melanoma) | TGI (SK-OV-3 ovarian) | TGI (SN12C renal) | TGI (SNB-19 CNS) | TGI (SNB-75 CNS) | TGI (SR leukemia) | TGI (SW-620 colon) | TGI (T-47D breast) | TGI (TK-10 renal) | TGI (U251 CNS) | TGI (UACC-257 melanoma) | TGI (UACC-62 melanoma) | TGI (UO-31 renal)
inactive: GI50 (T-47D breast) > 100000 nM
> 2440 nM and 390 nM: GI50 (NCI-H226 lung)
178 nM and 452 nM: GI50 (ACHN renal)
> 10000 nM: TGI (HCT-116 colon) | TGI (KM12 colon) | TGI (M14 melanoma) | TGI (SK-MEL-28 melanoma)

Source: PubChem BioAssay (NCI)
